Experimental findings from ChEMBL document CHEMBL5042493, “Enhancing monoamine oxidase B inhibitory activity via chiral fluorination: Structure-activity relationship, biological evaluation, and molecular docking study” (Eur J Med Chem, 2022) are described below.

The nature of series [1]: Half life in Cynomolgus monkey rat at 5 mg/kg, po measured upto 24 hrs. It counts as ADME, organism-based, Macaca fascicularis. To be noted: in vivo.
Series [2] in a line: Metabolic stability in dog liver microsome assessed as half life at 1 uM measured after 60 min in presence of NADPH by LC-MS/MS analysis. It counts as ADME, Canis lupus familiaris. To be noted: liver microsomes.
Series [3] in a line: Half life in Sprague dawley rat at 5 mg/kg, po measured upto 24 hrs. To be noted: in vivo. Type of series: ADME, organism-based.
Another series deals with T1, Cytochrome P450 2C8 (Homo sapiens, UniProt P10632).
T1 sequence (P10632 whole entry): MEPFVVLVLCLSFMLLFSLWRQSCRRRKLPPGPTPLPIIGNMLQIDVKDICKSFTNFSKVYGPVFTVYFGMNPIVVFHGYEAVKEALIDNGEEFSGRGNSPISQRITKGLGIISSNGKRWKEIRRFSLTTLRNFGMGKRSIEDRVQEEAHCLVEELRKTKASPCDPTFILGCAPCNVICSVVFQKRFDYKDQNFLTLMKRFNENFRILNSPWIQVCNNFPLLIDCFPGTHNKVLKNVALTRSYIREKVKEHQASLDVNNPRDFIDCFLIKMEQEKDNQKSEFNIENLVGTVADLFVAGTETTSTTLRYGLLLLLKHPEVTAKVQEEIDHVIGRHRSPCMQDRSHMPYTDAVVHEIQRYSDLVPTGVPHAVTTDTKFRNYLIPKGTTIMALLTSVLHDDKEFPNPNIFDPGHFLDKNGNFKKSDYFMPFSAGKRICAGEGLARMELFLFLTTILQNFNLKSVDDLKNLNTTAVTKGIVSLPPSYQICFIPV
As to the kind of experiment: Inhibition of human CYP2C8 preincubated for 10 min followed by addition of NADPH and measured after 45 min by LC-MS/MS analysis. It counts as ADME.

Series [4] in a line: Plasma protein binding in rat assessed as unbound fraction at 1 uM measured after 5 hrs by LC-MS/MS analysis. It counts as ADME, cell-free.
In a further series the target is T2, Cytochrome P450 2B6 (Homo sapiens, UniProt P20813).
T2 sequence (P20813 whole entry): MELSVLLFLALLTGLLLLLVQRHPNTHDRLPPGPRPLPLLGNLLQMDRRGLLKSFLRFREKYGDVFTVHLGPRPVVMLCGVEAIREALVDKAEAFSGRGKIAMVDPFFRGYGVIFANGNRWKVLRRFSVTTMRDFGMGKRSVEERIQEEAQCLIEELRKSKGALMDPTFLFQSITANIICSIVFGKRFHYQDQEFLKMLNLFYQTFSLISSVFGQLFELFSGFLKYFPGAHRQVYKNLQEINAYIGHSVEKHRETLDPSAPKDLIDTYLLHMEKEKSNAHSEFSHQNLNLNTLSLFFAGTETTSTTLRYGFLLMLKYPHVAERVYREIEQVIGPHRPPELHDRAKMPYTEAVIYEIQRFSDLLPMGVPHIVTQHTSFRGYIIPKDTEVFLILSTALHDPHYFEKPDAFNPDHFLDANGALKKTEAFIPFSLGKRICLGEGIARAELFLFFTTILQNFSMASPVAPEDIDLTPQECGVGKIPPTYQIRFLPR
As to the kind of experiment: Inhibition of human CYP2B6 preincubated for 10 min followed by addition of NADPH and measured after 10 min by LC-MS/MS analysis. Type of series: ADME.

In another series the target is Cytochrome P450 3A4 (Homo sapiens, UniProt P08684). As to the kind of experiment: Inhibition of human CYP3A4 preincubated for 10 min followed by addition of NADPH and measured after 5 min by LC-MS/MS analysis. It counts as ADME.
Cytochrome P450 3A4, sequence (P08684 whole entry): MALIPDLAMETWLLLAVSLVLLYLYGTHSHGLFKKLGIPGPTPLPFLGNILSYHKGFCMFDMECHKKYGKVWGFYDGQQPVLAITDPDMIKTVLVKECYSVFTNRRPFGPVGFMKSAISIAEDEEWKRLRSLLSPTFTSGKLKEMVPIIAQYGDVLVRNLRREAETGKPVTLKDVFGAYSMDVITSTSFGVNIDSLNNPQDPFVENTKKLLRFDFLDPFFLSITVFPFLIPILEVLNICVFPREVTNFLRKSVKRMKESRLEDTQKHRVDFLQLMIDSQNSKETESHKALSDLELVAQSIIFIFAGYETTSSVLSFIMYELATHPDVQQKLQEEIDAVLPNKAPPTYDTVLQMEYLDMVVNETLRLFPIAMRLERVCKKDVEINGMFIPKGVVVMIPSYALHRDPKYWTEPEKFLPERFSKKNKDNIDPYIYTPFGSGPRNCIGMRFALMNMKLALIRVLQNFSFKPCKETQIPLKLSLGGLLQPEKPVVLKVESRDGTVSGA
Series [5] in a line: AUC (0-t) in Sprague dawley rat at 5 mg/kg, po measured upto 24 hrs. Type of series: ADME, organism-based. Set-up: route oral, dose 5 mg/kg, time <=24. To be noted: in vivo.
Series [6] in a line: Metabolic stability in rat liver microsome assessed as half life at 1 uM measured after 60 min in presence of NADPH by LC-MS/MS analysis. It counts as ADME. To be noted: liver microsomes.
In a further series the target is hERG (KCNH2) (Homo sapiens, UniProt Q12809). As to the kind of experiment: Inhibition of human ERG expressed in CHO-K1 cells by Patch Clamp method. Type of series: toxicity, cell-based. To be noted: CHO-K1 cells expressing human ERG.
hERG (KCNH2), sequence (Q12809 whole entry): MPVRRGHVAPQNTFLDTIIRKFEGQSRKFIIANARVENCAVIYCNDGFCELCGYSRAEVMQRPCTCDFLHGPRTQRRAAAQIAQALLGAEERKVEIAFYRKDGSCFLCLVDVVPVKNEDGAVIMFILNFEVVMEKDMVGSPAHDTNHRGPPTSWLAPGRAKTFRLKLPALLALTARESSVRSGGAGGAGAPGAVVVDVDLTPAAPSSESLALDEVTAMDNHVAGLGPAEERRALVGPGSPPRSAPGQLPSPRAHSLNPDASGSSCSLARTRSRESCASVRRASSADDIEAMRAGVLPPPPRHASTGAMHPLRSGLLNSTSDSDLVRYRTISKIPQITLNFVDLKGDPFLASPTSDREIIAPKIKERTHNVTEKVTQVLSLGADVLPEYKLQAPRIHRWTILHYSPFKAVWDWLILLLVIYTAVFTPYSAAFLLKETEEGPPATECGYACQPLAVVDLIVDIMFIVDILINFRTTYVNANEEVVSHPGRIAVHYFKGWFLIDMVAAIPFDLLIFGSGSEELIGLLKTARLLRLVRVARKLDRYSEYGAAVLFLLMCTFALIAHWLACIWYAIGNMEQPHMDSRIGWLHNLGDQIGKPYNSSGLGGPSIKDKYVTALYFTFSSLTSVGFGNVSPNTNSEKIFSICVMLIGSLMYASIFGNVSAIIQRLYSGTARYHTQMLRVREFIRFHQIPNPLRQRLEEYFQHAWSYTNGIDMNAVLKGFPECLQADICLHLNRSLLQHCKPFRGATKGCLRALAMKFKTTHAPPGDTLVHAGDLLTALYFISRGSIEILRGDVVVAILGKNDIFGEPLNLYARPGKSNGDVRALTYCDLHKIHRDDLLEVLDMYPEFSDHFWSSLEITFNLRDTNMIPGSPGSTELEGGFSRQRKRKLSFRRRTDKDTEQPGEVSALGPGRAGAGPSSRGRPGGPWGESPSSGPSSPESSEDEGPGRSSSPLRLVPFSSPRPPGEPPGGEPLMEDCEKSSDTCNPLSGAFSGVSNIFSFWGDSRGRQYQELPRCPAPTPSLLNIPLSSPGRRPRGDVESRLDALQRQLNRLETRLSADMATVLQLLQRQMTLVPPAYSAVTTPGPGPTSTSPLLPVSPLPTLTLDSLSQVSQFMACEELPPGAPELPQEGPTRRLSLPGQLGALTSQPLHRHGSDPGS
The nature of series [7]: Toxicity in MPTP-induced C57BL/6 mouse model of Parkinson's disease assessed as effect on locomotor activity by measuring rearing activity at 0.625 to 1.25 mg/kg, ip pretreated for 15 mins followed by MPTP challenge and measured after 5 days post MPTP challenge. It counts as organism-based. To be noted: in vivo, 120 h, dose 0.625-1.25 mg/kg, time 5 day.

Molecules are shown by their SMILES.

For the compound `NC(=O)[C@@H]1C[C@H](F)CN1Cc1ccc(OCc2cccc(F)c2)cc1`, the figures for the half-life in [1] and in series [3] were 168 min and 34.2 min, respectively. The half-life at 1 µM in [2] turned out to be 51.1 min; in [6], 11.5 min. The IC50 was greater than 29 µM against Cytochrome P450 2C8, greater than 29 µM against Cytochrome P450 2B6, greater than 29 µM on Cytochrome P450 3A4 and greater than 30 µM on hERG (KCNH2). The unbound share (fraction unbound) at 5 h, 1 µM in [4] was 0.0504. For the same compound, the AUC(0-t) at 24 h in series [5] is 1400 ng·h/mL. In series [7], the Activity entry is recorded as “Non-Toxic”.
